Assay results published in ChEMBL document CHEMBL4145597, “BMS-986163, a Negative Allosteric Modulator of GluN2B with Potential Utility in Major Depressive Disorder” (ACS Med Chem Lett, 2018).
Converted amounts (≈) assume the structure as drawn. Each block holds one molecule with its values, some of them ahead of it. The source made the active and inactive calls. No cut-off for these calls is given here.

Assays:
[1] = Plasma concentration in CD-1 mouse at 0.1 to 1 mg/kg, iv; type: ADME, organism-based; conditions: in vivo
[2] = target: Voltage-gated inwardly rectifying potassium channel KCNH2 (Homo sapiens, UniProt Q12809); experiment: Inhibition of human ERG expressed in HEK293 cells assessed as reduction in peak tail current after 2 to 5 mins by patch clamp based electrophysiology assay; type: cell-based
[3] = test system: Mus musculus; experiment: Ex vivo receptor occupancy at GluN2B receptor in CD-1 mouse forebrain membranes assessed as reduction in [3H]Ro 25-6981 receptor labeling at 1 mg/kg, iv incubated for 5 mins by topcount micro scintillation counting method; type: functional
[4] = test system: Mus musculus; experiment: Ex vivo receptor occupancy at GluN2B receptor in CD-1 mouse forebrain membranes assessed as reduction in [3H]Ro 25-6981 receptor labeling at 3 mg/kg, iv incubated for 5 mins by topcount micro scintillation counting method; type: functional
[5] = Clearance in Beagle dog at 1 mg/kg, iv administered as 5 mins infusion; type: ADME, organism-based, Canis lupus familiaris; conditions: in vivo
[6] = target: T1, Cytochrome P450 1A2 (Homo sapiens, UniProt P05177); experiment: Time dependent inhibition of CYP1A2 in human liver microsomes; type: ADME
[7] = Oral bioavailability in rat at 5 mg/kg; type: ADME, organism-based; conditions: in vivo
[8] = test system: Salmonella typhimurium; experiment: Mutagenicity in Salmonella typhimurium by Ames test; type: toxicity, organism-based; conditions: salmonella enterica subsp. enterica serovar typhimurium
[9] = target: T2, Cytochrome P450 2D6 (Homo sapiens, UniProt P10635); experiment: Inhibition of CYP2D6 in human liver microsomes; type: ADME
[10] = test system: Rhesus monkey; experiment: AUC (0 to 24 hrs) in monkey at 36 mg/kg, iv assessed as BMS-986169 level in plasma; type: ADME, organism-based, Macaca mulatta; set-up: dose 36 mg/kg, time < 24 hr, route intravenous; conditions: in vivo
[11] = Volume of distribution at steady state in Sprague-Dawley rat at 1 mg/kg, iv administered as 5 mins infusion; type: ADME, organism-based; conditions: in vivo, read-out: Vdss
[12] = Unbound plasma concentration in guinea pig at 2 to 10 mg/kg, iv; type: ADME, organism-based, Cavia porcellus; conditions: in vivo
[13] = target: T3, Cytochrome P450 2B6 (Homo sapiens, UniProt P20813); experiment: Time dependent inhibition of CYP2B6 in human liver microsomes; type: ADME
[14] = Half life in Sprague-Dawley rat at 1 mg/kg, iv administered as 5 mins infusion; type: ADME, organism-based; conditions: in vivo
[15] = AUClast in Sprague-Dawley rat at 1 mg/kg, iv administered as 5 mins infusion; type: ADME, organism-based; set-up: dose 1 mg/kg, route intravenous, time 0 - last; conditions: in vivo
[16] = Volume of distribution at steady state in CD-1 mouse at 1 mg/kg, iv administered as 5 mins infusion; type: ADME, organism-based; conditions: in vivo, read-out: Vdss
[17] = Fraction unbound in cynomolgus monkey plasma; type: ADME, cell-free, Macaca fascicularis
[18] = Dissociation constant, pKa of the compound by spectrophotometric method; type: physicochemical
[19] = target: T4, Cytochrome P450 2C9 (Homo sapiens, UniProt P11712); experiment: Inhibition of CYP2C9 in human liver microsomes; type: ADME
[20] = target: T5, Cytochrome P450 3A4 (Homo sapiens, UniProt P08684); experiment: Time dependent inhibition of CYP3A4 in human liver microsomes using BFC/BZR as substrate; type: ADME
[21] = target: T6, Cytochrome P450 2C19 (Homo sapiens, UniProt P33261); experiment: Inhibition of CYP2C19 in human liver microsomes; type: ADME
[22] = Half life in Beagle dog at 1 mg/kg, iv administered as 5 mins infusion; type: ADME, organism-based, Canis lupus familiaris; conditions: in vivo
[23] = target: T7, Cytochrome P450 2C8 (Homo sapiens, UniProt P10632); experiment: Inhibition of CYP2C8 in human liver microsomes; type: ADME
[24] = Half life in CD-1 mouse at 1 mg/kg, iv administered as 5 mins infusion; type: ADME, organism-based; conditions: in vivo
[25] = Half life in rat liver microsomes; type: ADME, microsome
[26] = AUClast in CD-1 mouse at 1 mg/kg, iv administered as 5 mins infusion; type: ADME, organism-based; set-up: dose 1 mg/kg, time 0 - last, route intravenous; conditions: in vivo
[27] = Clearance in cynomolgus monkey at 1 mg/kg, iv administered as 5 mins infusion; type: ADME, organism-based, Macaca fascicularis; conditions: in vivo
[28] = Clearance in CD-1 mouse at 1 mg/kg, iv administered as 5 mins infusion; type: ADME, organism-based; conditions: in vivo
[29] = Half life in cynomolgus monkey liver microsomes; type: ADME, Macaca fascicularis, microsome
[30] = Prodrug activation in dog assessed as BMS-986169 level in blood at 37 degC; type: tissue-based, Canis lupus familiaris
[31] = target: Glutamate receptor ionotropic, NMDA 2D (Homo sapiens) (UniProt O15399); experiment: Negative allosteric modulation of human GluN2D receptor expressed in Xenopus laevis oocytes assessed as inhibition of glutamate/glycine-induced channel current at 3 uM after 10 to 15 mins by two electrode voltage clamp based electrophysiology assay; type: cell-based
[32] = target: T1, Cytochrome P450 1A2; experiment: Inhibition of CYP1A2 in human liver microsomes; type: ADME
[33] = Half life in mouse liver microsomes; type: ADME, microsome
[34] = target: T3, Cytochrome P450 2B6; experiment: Inhibition of CYP2B6 in human liver microsomes; type: ADME
[35] = target: Glutamate receptor ionotropic, NMDA 2C (Homo sapiens) (UniProt Q14957); experiment: Negative allosteric modulation of human GluN2C receptor expressed in Xenopus laevis oocytes assessed as inhibition of glutamate/glycine-induced channel current at 3 uM after 10 to 15 mins by two electrode voltage clamp based electrophysiology assay; type: cell-based
[36] = target: T5, Cytochrome P450 3A4; experiment: Inhibition of CYP3A4 in human liver microsomes using BFC/BZR as substrate; type: ADME
[37] = Fraction unbound in dog plasma; type: ADME, cell-free, Canis lupus familiaris
[38] = Prodrug activation in rat assessed as BMS-986169 level in blood at 37 degC; type: tissue-based
[39] = Clearance in Sprague-Dawley rat at 1 mg/kg, iv administered as 5 mins infusion; type: ADME, organism-based; conditions: in vivo
[40] = target: Adrenergic receptor alpha-1 (Homo sapiens) (UniProt P35348+P25100+P35368); experiment: Inhibition of human adrenergic alpha 1 receptor; type: protein assay
[41] = Fraction unbound in rat plasma; type: ADME, cell-free
[42] = target: T2, Cytochrome P450 2D6; experiment: Time dependent inhibition of CYP2D6 in human liver microsomes; type: ADME
[43] = target: Glutamate receptor ionotropic, NMDA 2B (Homo sapiens, UniProt Q13224); experiment: Binding affinity to GluN2B receptor in human cortex
[44] = AUClast in Beagle dog at 1 mg/kg, iv administered as 5 mins infusion; type: ADME, organism-based, Canis lupus familiaris; set-up: dose 1 mg/kg, time 0 - last, route intravenous; conditions: in vivo
[45] = target: T7, Cytochrome P450 2C8; experiment: Time dependent inhibition of CYP2C8 in human liver microsomes; type: ADME
[46] = Binding affinity to GluN2B receptor in cynomolgus monkey cortex; set-up: species or system Macaca fascicularis
[47] = AUClast in cynomolgus monkey at 1 mg/kg, iv administered as 5 mins infusion; type: ADME, organism-based, Macaca fascicularis; set-up: dose 1 mg/kg, route intravenous, time 0 - last; conditions: in vivo
[48] = target: Glutamate receptor ionotropic, NMDA 2B (Homo sapiens, UniProt Q05586+Q13224); experiment: Negative allosteric modulation of human GluN2B receptor expressed in Xenopus laevis oocytes assessed as inhibition of glutamate/glycine-induced channel current after 15 to 20 mins by two electrode voltage clamp based electrophysiology assay; type: cell-based
[49] = Prodrug activation in human assessed as BMS-986169 level in blood at 37 degC; type: tissue-based
[50] = Fraction unbound in mouse plasma; type: ADME, cell-free
[51] = Half life in human liver microsomes; type: ADME, microsome
[52] = Aqueous solubility of the compound at pH 7.4; type: physicochemical; conditions: aqueous medium
[53] = target: T6, Cytochrome P450 2C19; experiment: Time dependent inhibition of CYP2C19 in human liver microsomes; type: ADME
[54] = Fraction unbound in human plasma; type: ADME, cell-free
[55] = target: Glutamate receptor ionotropic, NMDA 2A (Homo sapiens) (UniProt Q12879); experiment: Negative allosteric modulation of human GluN2A receptor expressed in Xenopus laevis oocytes assessed as inhibition of glutamate/glycine-induced channel current at 3 uM after 10 to 15 mins by two electrode voltage clamp based electrophysiology assay; type: cell-based
[56] = target: T4, Cytochrome P450 2C9; experiment: Time dependent inhibition of CYP2C9 in human liver microsomes; type: ADME
[57] = Volume of distribution at steady state in Beagle dog at 1 mg/kg, iv administered as 5 mins infusion; type: ADME, organism-based, Canis lupus familiaris; conditions: in vivo, read-out: Vdss
[58] = Volume of distribution at steady state in cynomolgus monkey at 1 mg/kg, iv administered as 5 mins infusion; type: ADME, organism-based, Macaca fascicularis; conditions: in vivo, read-out: Vdss
[59] = Half life in dog liver microsomes; type: ADME, Canis lupus familiaris, microsome
[60] = Prodrug activation in cynomolgus monkey assessed as BMS-986169 level in plasma at 1.2 mg/kg, iv measured 10 mins post dose; type: organism-based, Macaca fascicularis; conditions: in vivo
[61] = test system: Cavia porcellus; experiment: Cardiotoxicity in guinea pig assessed as increase in QTcB at 2 to 10 mg/kg, iv; type: toxicity, organism-based; conditions: in vivo
[62] = Half life in cynomolgus monkey at 1 mg/kg, iv administered as 5 mins infusion; type: ADME, organism-based, Macaca fascicularis; conditions: in vivo
[63] = Prodrug activation in monkey assessed as BMS-986169 level in blood at 37 degC; type: tissue-based, Macaca mulatta; conditions: rhesus monkey
[64] = Octanol/water buffer partition co-efficient, log D of the compound at pH 7.4 by shake-flask method; type: physicochemical
[65] = Ratio of drug uptake in CD-1 mouse brain to plasma at 0.1 to 1 mg/kg, iv; type: ADME, organism-based; conditions: read-out: BPR
[66] = target: Glutamate receptor ionotropic, NMDA 2B (Rattus norvegicus, UniProt Q00960); experiment: Displacement of [3H]Ro 25-6981 from GluN2B receptor in Sprague-Dawley rat forebrain membranes incubated for 1 hr by topcount micro scintillation counting method; set-up: species or system Membrane

Sequence of Voltage-gated inwardly rectifying potassium channel KCNH2 (Q12809 whole entry): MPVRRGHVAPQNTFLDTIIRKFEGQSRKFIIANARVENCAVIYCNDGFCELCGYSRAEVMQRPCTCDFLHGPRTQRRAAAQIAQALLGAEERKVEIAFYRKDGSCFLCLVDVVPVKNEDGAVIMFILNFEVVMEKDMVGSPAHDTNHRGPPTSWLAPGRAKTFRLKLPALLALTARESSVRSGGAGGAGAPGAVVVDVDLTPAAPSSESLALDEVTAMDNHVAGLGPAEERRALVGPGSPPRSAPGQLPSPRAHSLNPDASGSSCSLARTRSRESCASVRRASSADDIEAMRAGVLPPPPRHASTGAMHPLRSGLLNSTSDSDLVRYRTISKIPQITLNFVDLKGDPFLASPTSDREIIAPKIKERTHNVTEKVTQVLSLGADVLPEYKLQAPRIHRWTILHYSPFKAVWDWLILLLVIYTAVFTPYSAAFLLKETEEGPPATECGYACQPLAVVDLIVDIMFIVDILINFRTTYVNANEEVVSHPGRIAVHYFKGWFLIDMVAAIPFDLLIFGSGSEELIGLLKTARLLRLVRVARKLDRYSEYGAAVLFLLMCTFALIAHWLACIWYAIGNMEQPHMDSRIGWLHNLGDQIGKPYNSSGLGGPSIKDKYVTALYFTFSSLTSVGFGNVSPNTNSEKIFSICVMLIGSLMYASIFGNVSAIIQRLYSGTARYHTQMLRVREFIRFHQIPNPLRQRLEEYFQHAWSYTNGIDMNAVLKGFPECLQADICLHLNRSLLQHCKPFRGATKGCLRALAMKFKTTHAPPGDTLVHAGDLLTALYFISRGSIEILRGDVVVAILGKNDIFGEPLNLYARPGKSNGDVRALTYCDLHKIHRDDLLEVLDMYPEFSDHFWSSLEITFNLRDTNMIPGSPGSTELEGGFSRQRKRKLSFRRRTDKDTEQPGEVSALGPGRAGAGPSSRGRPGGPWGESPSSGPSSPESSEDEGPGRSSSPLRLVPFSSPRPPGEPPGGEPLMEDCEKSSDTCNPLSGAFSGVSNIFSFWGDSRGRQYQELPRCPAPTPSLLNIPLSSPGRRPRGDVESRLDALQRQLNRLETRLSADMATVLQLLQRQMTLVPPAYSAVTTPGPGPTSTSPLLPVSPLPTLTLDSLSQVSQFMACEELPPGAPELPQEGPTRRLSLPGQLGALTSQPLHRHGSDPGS
T3 sequence (P20813 whole entry, the tested form may be a part): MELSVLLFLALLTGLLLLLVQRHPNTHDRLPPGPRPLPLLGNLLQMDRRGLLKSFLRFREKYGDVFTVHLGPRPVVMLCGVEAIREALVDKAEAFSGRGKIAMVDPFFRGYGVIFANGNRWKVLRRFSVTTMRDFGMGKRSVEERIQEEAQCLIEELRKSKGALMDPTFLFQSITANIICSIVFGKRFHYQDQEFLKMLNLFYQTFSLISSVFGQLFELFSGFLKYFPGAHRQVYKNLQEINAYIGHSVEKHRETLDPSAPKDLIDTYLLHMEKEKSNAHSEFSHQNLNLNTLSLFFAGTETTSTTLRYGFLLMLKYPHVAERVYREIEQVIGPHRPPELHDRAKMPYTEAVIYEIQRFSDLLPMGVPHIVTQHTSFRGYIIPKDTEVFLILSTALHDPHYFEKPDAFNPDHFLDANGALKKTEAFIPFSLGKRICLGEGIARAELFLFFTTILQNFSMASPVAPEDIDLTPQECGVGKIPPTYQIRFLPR
T4 sequence (P11712 whole entry): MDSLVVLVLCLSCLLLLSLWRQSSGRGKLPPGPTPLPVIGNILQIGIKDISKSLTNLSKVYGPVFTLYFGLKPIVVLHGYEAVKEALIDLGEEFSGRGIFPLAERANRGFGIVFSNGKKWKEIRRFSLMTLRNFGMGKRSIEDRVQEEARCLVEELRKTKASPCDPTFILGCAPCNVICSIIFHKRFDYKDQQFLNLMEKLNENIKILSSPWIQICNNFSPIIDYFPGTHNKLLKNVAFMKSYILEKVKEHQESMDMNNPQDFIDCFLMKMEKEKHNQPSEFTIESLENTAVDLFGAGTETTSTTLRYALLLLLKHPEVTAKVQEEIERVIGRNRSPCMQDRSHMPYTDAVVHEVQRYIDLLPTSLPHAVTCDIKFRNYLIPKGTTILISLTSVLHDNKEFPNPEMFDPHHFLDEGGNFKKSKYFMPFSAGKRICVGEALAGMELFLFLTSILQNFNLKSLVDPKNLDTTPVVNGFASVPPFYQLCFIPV
T1 sequence (P05177 whole entry): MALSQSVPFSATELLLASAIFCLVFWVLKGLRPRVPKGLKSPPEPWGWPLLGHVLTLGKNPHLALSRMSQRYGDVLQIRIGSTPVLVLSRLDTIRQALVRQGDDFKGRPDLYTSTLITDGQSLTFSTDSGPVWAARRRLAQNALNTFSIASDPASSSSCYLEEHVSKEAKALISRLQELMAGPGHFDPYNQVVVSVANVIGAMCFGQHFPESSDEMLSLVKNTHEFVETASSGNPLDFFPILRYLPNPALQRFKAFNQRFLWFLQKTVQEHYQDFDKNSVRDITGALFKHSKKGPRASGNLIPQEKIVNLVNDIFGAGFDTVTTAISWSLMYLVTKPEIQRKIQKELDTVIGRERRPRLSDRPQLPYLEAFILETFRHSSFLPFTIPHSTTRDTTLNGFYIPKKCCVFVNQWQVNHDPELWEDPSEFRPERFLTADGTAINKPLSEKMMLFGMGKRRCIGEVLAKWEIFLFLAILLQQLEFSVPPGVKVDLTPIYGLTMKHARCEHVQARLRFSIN
T5 sequence (P08684 whole entry): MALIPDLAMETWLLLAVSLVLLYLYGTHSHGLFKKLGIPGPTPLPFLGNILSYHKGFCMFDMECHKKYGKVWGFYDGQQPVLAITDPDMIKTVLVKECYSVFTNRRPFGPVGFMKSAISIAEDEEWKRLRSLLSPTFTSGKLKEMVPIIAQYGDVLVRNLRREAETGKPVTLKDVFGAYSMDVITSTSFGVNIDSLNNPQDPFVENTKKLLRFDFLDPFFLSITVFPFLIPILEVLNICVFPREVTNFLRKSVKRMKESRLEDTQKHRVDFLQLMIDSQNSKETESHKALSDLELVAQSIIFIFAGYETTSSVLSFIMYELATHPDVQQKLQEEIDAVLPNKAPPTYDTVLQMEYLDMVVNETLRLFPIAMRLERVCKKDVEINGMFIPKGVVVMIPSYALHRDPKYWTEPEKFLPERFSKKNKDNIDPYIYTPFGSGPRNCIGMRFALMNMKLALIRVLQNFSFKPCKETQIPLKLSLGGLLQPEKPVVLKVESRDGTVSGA
T2 sequence (P10635 whole entry): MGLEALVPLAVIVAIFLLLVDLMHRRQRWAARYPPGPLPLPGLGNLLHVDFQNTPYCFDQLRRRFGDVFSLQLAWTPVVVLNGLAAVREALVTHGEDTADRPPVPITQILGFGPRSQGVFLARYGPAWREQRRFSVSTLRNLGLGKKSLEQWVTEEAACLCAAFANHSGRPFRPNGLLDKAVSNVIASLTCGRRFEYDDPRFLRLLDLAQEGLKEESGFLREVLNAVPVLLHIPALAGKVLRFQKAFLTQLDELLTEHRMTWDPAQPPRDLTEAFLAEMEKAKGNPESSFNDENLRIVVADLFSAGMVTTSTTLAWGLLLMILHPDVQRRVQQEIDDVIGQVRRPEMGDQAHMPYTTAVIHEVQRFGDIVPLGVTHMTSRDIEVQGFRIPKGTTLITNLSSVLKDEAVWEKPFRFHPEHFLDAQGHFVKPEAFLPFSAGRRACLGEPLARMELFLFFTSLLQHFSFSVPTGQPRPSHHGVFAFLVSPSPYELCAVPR
T6 sequence (P33261 whole entry, the tested form may be a part): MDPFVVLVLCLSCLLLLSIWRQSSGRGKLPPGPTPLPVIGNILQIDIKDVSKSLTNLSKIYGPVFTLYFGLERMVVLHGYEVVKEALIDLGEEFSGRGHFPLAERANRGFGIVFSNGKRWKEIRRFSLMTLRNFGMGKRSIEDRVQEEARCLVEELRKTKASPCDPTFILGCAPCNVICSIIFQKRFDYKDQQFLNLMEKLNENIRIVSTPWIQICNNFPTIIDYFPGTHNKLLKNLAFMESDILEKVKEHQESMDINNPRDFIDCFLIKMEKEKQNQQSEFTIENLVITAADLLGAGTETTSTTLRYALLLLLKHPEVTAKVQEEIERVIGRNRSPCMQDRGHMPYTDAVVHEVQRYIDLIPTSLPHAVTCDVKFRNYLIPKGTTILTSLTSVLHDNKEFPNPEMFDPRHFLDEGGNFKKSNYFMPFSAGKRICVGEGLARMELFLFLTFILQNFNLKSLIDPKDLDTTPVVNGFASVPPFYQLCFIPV
T7 sequence (P10632 whole entry, the tested form may be a part): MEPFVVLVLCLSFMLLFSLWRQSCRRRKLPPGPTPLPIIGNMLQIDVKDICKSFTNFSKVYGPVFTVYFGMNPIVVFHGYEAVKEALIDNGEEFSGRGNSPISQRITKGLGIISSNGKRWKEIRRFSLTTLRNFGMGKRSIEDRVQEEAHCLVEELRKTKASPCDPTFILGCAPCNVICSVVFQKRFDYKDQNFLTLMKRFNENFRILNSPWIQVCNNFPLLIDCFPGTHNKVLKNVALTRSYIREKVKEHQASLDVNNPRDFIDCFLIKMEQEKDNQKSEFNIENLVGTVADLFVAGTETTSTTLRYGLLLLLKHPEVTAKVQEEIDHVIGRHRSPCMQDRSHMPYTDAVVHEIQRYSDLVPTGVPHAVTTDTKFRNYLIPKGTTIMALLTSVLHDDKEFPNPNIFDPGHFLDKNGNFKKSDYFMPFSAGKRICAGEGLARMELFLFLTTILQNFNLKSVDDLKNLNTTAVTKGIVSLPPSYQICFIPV

- concentration [1]: 220 nM
SMILES: Cc1ccc(CN2CC[C@@H](N3CCC(c4ccc(O)cc4)CC3)C2=O)cc1
- IC50 [2]: 0.4 µM
- Occ [3]: 92%

- concentration [1]: 590 nM
SMILES: Cc1ccc(CN2CC[C@@H](N3CC[C@H](c4ccc(O)cc4)[C@H](F)C3)C2=O)cc1
- IC50 [2]: 7.8 µM
- Occ [4]: 95%

- clearance [5]: 17 mL/min/kg
- TDI [6]: Not Active
- bioavailability [7]: 2.5%
- IC50 [9]: > 18 µM
- AUC [10]: 88 µM·h
- Vd [11]: 2.3 L/kg
- Cp(f) [12]: <= 19 uM
- TDI [13]: Not Active
- half-life [14]: 54 min
- AUC(0-t) at 5 min [15]: 1.3 µM·h
- Vd [16]: 8.2 L/kg
- fraction unbound [17]: 0.11
- pKa [18]: 4.4
- IC50 [19]: > 18 µM
- TDI [20]: Not Active
- IC50 [21]: > 18 µM
- half-life [22]: 126 min
- IC50 [23]: > 18 µM
- concentration [1]: 270 to 1100 nM
- half-life [24]: 216 min
- half-life [25]: 2.7 min
- AUC(0-t) at 5 min [26]: 0.53 µM·h
- clearance [27]: 15 mL/min/kg
- clearance [28]: 75 mL/min/kg
- half-life [29]: 12 min
- Drug metabolism [30]: Metabolite_Detected
- inhibition [31]: 7%
- IC50 [32]: > 18 µM
- half-life [33]: 3.5 min
- IC50 [34]: > 18 µM
- inhibition [35]: 8.6%
- IC50 [36]: > 18 µM
- fraction unbound [37]: 0.07
- Drug metabolism [38]: Metabolite_Detected
- clearance [39]: 54 mL/min/kg
- inhibition [40]: inactive
- fraction unbound [41]: 0.09
- TDI [42]: Not Active
- Ki [43]: 0.0063 µM
- AUC(0-t) at 5 min [44]: 2.5 µM·h
- TDI [45]: Not Active
- Ki [46]: 0.0042 µM
- AUC(0-t) at 5 min [47]: 2.7 µM·h
- IC50 [48]: 0.024 µM
- Drug metabolism [49]: Metabolite_Detected
- fraction unbound [50]: 0.12
- half-life [51]: 25 min
- solubility [52]: 2 µg/mL (≈ 5.23 µM)
- TDI [53]: Not Active
- fraction unbound [54]: 0.06
- inhibition [55]: -2.4%
- TDI [56]: Not Active
- Vd [57]: 2.1 L/kg
- Vd [58]: 1.7 L/kg
- half-life [59]: 6 min
- Drug metabolism [60]: Metabolite_Detected
- half-life [62]: 90 min
- Drug metabolism [63]: Metabolite_Detected
- logD [64]: 2.9
- Kp [65]: 2.8
SMILES: Cc1ccc(CN2CC[C@@H](N3CC[C@@H](c4ccc(O)cc4)[C@H](F)C3)C2=O)cc1
- Activity [8]: Non-Toxic
- Occ [4]: 95%
- Occ [3]: 73%
- Activity [61]: Non-Toxic

- concentration [1]: 2500 nM
SMILES: Cc1ccc(CN2CC[C@@H](N3CCC(c4ccc(O)cc4)C(F)(F)C3)C2=O)cc1 (some centres not stated)
- IC50 [2]: > 30 µM
- Occ [4]: 93%

- Ki [66]: 0.011 µM
- concentration [1]: 1200 nM
SMILES: O=C1[C@H](N2CC[C@@H](c3ccc(O)cc3)[C@H](F)C2)CCN1Cc1ccc(F)cc1
- IC50 [2]: > 5 µM
- Occ [4]: 81%
